From patent US7393839B2, “Polymorphic antiviral nucleoside compounds” (Roche Palo Alto LLC, priority 2003, dated 2008)
Where a name gives a salt, the structure may show the parent alone.

Assays:
[1] = Vapor sorption analysis (hygroscopicity); assay type: physicochemical
Excerpt: Vapor sorption analysis was used to assess the hygroscopicity of the Form A polymorph. The experiment was run in an isothermal mode and the sample weight recorded as the relative humidity was varied. During the adsorption phase Ib gained 0.5 wt % between 5% relative humidity (RH) and 85% RH. […] At the end of the analysis the sample was still solid and appeared to be crystalline. After the TGA analysis a portion of the sample was recovered and analyzed by DSC. The DSC thermograms of the starting material and of the material recovered following vapor sorption analysis were superimposable.
The experimental protocol was set up to dry the sample at 60° C. for a maximum of 1 h or until an equilibrium condition was reached which fluctuated less then 0.02 wt % in 5 min. The experiment was run isothermally at 25° C., and the %RH was increased from 5% to 95% in 10% increments. After each increment the sample held constant until equilibrium was reached. Equilibrium was defined as a per cent weight change of not more than 0.005 wt % in 5.00 minutes. After reaching 95% RH the RH was lowered back to 5% RH. If equilibrium was not reached within 2 hours, the %RH was advanced to the next programmed level.

[2] = Thermal stability on modulated temperature x-ray diffractometer; assay type: physicochemical; settings: for thermal stability of crystalline form: monohydrochloride
[3] = Accelerated stability study (Form A): temperature, humidity, light; assay type: physicochemical
Procedure: Stability samples were evaluated for appearance, water content, chemical stability using an HPLC method and physical stability using DSC, specific rotation and x-ray powder diffraction methods. Photochemical stability was assessed by comparison with a control sample that was wrapped in aluminum foil and set side by side with the light sample in the light chamber.
DSC Thermograms were collected using a 2920 Modulated DSC from Thermal Analyzer (TA) Instruments. The heating rate was 10° C./min with a nitrogen purge maintained throughout the run.
Chromatography was carried out on a Zorbax SB-CN, 4.6×150 mm, 3.5 μm column. A ternary solvent gradient was used comprised of (A) water, (B) acetonitrile and (C) 200 mM heptane sulfonic acid sodium salt, monohydrate with 1% phosphoric acid in water. To prepare 500 mL of the solution, dissolve 22.0 g of 1-heptane sulfonic acid sodium salt, monohydrate in about 400 mL of water. Add 5 mL of phosphoric acid, 85% and then dilute to a volume of 500 mL with water and mix thoroughly. A flow rate of 1.0 mL/m was used. The column was run isocratically with 90% A and 10% C for 5 m. A linear gradient to 20% A, 70% B and 10% C was run over 20 m. This mixture was run isocratically for an addition 5 m after which the solvent was ramped back to 90% A and […] over 2 m followed by 8 m to reequilibrate the column. The column was maintained at 40° C.

Vacuum drying of Form B = assay type: physicochemical
[4] = Physical stability of Form B on storage; assay type: physicochemical; settings: ambient temperature, 25° C./60% RH, 30° C./60% RH, 40° C./75% RH, at least 4 weeks
Excerpt: The Form B-polymorph was crystallized from water and formed platelets (FIG. 3B). […] (FIG. 5B) corresponding to approximately one mole of water per mole of Ib.

Bulk and tap density = assay type: physicochemical
Procedure: The bulk density of Ib was determined Vanderkamp™ tap density tester, with an acoustic cabinet, or equivalent (Van-Kel Industries, Inc., 36 Meridian Road, Edison, N.J. 08820) apparatus following. Ib was passed through a 20 mesh. A powder funnel was placed on top of a cylinder and the powder was transferred rapidly in to the cylinder while avoiding agitation or tapping of the cylinder and the lower funnel. The sample weight in the cylinder was determined and the bulk density was calculated.
The tapped density was determined by measuring the volume of drug substance in a 25 mL graduated cylinder after 300 taps of a known amount of drug substance. The apparatus used was a VanderKamp Tapped Density Tester. The tapped density was calculated as the known weight of drug substance divided by the measured volume.

HCV = settings: unlike ribavirin; cited from earlier work
[5] = compared with ribavirin; cited from earlier work
Th1 cytokine expression = settings: antiviral Th1 cytokine expression; cited from earlier work
[6] = heating from room temperature to 175° C.
[7] = Light Control (wrapped in aluminum foil), ICH Q1B

Compound: 2-(S)-amino-3-methyl-butyric acid 5S-(3-carbamoyl-[1,2,4]triazol-1-yl)-3R,4S-dihydroxy-tetrahydrofuran-2S-yl methyl ester, monohydrochloride [Form A]
- hygroscopicity ([1]; 5%-95%-5% RH cycle, 25° C.): not hygroscopic
- DSC thermograms of starting material and material recovered following vapor sorption analysis ([1]; after 5%-95%-5% RH cycle): superimposable
- weight gained during adsorption phase ([1]; between 5% RH and 85% RH, isothermal 25° C.): 0.5 wt %
- weight increase during adsorption phase ([1]; between 85% and 95% RH, isothermal 25° C.): < 2.5 weight percent
- weight change during desorption phase ([1]; same %RH ranges, desorption): virtually all of the weight gained in the adsorption phase was lost
- thermal stability of crystalline form [2, 6]: did not change its crystalline form
- % Purity (ext. std) ([3]; 2–8° C., 3 months): 99.9%
- Appearance ([3]; 2–8° C., 3 months): White to off-white
- % Purity (ext. std) ([3]; 2–8° C., 4 weeks): 100.4%
- Appearance ([3]; 2–8° C., 4 weeks): White crystalline
- % Purity (ext. std) ([3]; 25° C. 60% RH, 3 months): 99.8%
- Appearance ([3]; 25° C. 60% RH, 3 months): White to off-white
- % Purity (ext. std) ([3]; 25° C. 60% RH, 4 weeks): 100.2%
- Appearance ([3]; 25° C. 60% RH, 4 weeks): White crystalline
- % Purity (ext. std) ([3]; 30° C. 60% RH, 3 months): 100.2%
- Appearance ([3]; 30° C. 60% RH, 3 months): White to off-white
- % Purity (ext. std) ([3]; 30° C. 60% RH, 4 weeks): 100.7%
- Appearance ([3]; 30° C. 60% RH, 4 weeks): White crystalline
- % Purity (ext. std) ([3]; 40° C. 75% RH, 3 months): 100.1%
- Appearance ([3]; 40° C. 75% RH, 3 months): White to off-white
- % Purity (ext. std) ([3]; 40° C. 75% RH, 4 weeks): 100.6%
- Appearance ([3]; 40° C. 75% RH, 4 weeks): White crystalline
- % Purity (ext. std) ([3]; 60° C., 3 months): 98.7%
- Appearance ([3]; 60° C., 3 months): White to off-white
- % Purity (ext. std) ([3]; 60° C., 4 weeks): 100.8%
- Appearance ([3]; 60° C., 4 weeks): White crystalline
- % Purity (ext. std) [3, 7]: 100.9%
- Appearance [3, 7]: White crystalline
- % Purity (ext. std) ([3]; Light, ICH Q1B): 100.9%
- Appearance ([3]; Light, ICH Q1B): White crystalline
- % Purity (ext. std) ([3]; RT, Initial): 98.1%
- Appearance ([3]; RT, Initial): White crystalline

Compound: 2-(S)-amino-3-methyl-butyric acid 5S-(3-carbamoyl-[1,2,4]triazol-1-yl)-3R,4S-dihydroxy-tetrahydrofuran-2S-yl methyl ester, monohydrochloride [Form B]
- crystalline form after vacuum drying (Vacuum drying of Form B; at elevated temperature): conversion of Form B to Form A
- crystalline form after vacuum drying (Vacuum drying of Form B; in the absence of heat): stable
- crystalline form after heating and cooling ([2]; from 32° C. to 140° C.): conversion of Form B into Form A
- temperature above which Form B was converted into Form A [2, 6]: above 80 °C
- thermal stability of crystalline form [2, 6]: unstable
- physical stability on storage [4]: physically stable

Compound: CC(C)C(N)C(=O)OC[C@@H]1O[C@H](n2cnc(C(N)=O)n2)[C@@H](O)[C@H]1O (stereo partly drawn) [Ib, 2-(S)-amino-3-methyl-butyric acid 5S-(3-carbamoyl-[1,2,4]triazol-1-yl)-3R,4S-dihydroxy-tetrahydrofuran-2S-yl methyl ester, monohydrochloride]
- bulk density (Bulk and tap density): 0.35 g/mL
- tapped density (Bulk and tap density; after 300 taps): 0.58 g/mL
- change in DSC thermograms, specific rotation, water content, x-ray diffraction pattern and purity ([3]; over the study period, all storage conditions): no discernable change

Compound: NC(=O)c1ncn([C@H]2O[C@@H](CO)[C@H](O)[C@@H]2O)n1 [Levovirin, 1-(3S,4R-dihydroxy-5S-hydroxymethyl-tetrahydro-furan-2S-yl)-1H-[1,2,4]triazole-3-carboxylic acid amide]
- direct antiviral activity (HCV): does not have direct detectable antiviral activity
- toxicity [5]: appears to lack toxicity associated with ribavirin
- immune response (Th1 cytokine expression): stimulates immune responses by enhancing antiviral Th1 cytokine expression
